Reference: patent US10112978B2, “Peptide and use thereof” (OSAKA UNIVERSITY, priority 2014, dated 2018)
Entries after “also recorded” stand apart in the source; their conditions may differ.

Columns and labels:
[1] = system: inflammasomes; assay: Inflammasome activation: IL-1β production in THP-1 cells with or without LPS priming, cathepsin B inhibitor or caspase-1 inhibitor; assay type: cell-based, human
Procedure: THP-1 cells were suspended at 1×10^6 cells/mL in RPMI1640 medium containing 1 μg/mL LPS and 10% FBS, and incubated in a CO2 incubator for 3 hours for cell priming. The cell suspension was centrifugated, the cells were resuspended at 1×10^6 cells/mL in RPMI1640 medium containing 10% FBS, and the cell suspension was added to a 96-well plate at 100 μL/well. The cathepsin B inhibitor Ca-074-Me (final concentration: 10 μM), the caspase-1 inhibitor Z-YVAD-FMK (final concentration: 10 μM) or the medium was added to the wells. After that, OSK-1 or the medium was added to the wells, and the cells were cultured in a CO2 incubator. After 16 hours, the culture supernatant was harvested, and the cytokine concentrations in the supernatant were measured by ELISA.

[2] = system: THP-1 cells; assay: CD86 and CD54 expression in THP-1 cells (flow cytometry, RFI); assay type: cell-based, human; details: overnight culture, relative fluorescence intensity
Procedure: THP-1 cells were seeded at a density of 2.0×10^5 cells/mL in 50 mL of RPMI1640 medium containing 10% FBS and 0.05 mM mercaptoethanol in a 75-cm^2 flask, and precultured for 48 hours.
The precultured THP-1 cells were harvested by centrifugation and suspended at 2.0×10^6 cells/mL in RPMI1640 medium containing 10% FBS and 0.05 mM mercaptoethanol, and the cell suspension was added to a 24-well plate at 500 μL/well. Test peptides were separately dissolved in the same medium as above, and 500 μL of each of the solutions was added to separate wells containing the cell suspension.
After overnight culture, the cells were harvested by centrifugation and washed twice with PBS containing 0.1% BSA (FACS buffer). The cells were then dispersed in 600 μL of FACS buffer containing 0.01% human γ-globulin solution (Sigma, G2388), and incubated at 4° C. for 10 minutes for blocking of Fc receptors.
After that, the cell suspension was divided into three 180-μL aliquots in 1.5-mL tubes, the tubes were centrifuged, and the cell pellets were prepared for the reaction with antibodies. To the cell pellets, FITC-labeled antibody solutions separately diluted to appropriate concentrations in FACS buffer were added in a volume of 50 μL, and incubation was performed at 4° C. for 30 minutes. The antibodies used were CD86 antibody (Pharmingen; Cat#555657), CD54 antibody (Dako; Cat# F7143) and isotype control (Mouse IgG) antibody (Dako; Cat#X0927). After the 30-minute incubation, the cells were harvested by centrifugation and washed twice with FACS buffer. The cells harvested by centrifugation were dispersed in 200 μL of FACS buffer containing 0.625 μg/mL propidium iodide, and the expression levels of the cell surface antigens on 1×10^4 viable cells were measured by flow cytometry. Forward and side scatter gating was not used for the analysis, and the relative fluorescence intensity (RFI) was calculated from the measured mean fluorescence intensities (MFI) by the following formula. […]
When the viability of the non-treated control cells (vehicle treatment cells) was 90% or more, the test was considered valid. In the case where the cell viability at a particular sample concentration used in the test was lower than 50%, the data of the CD54 level at the concentration was excluded from the evaluation.

[3] = system: beagles; assay: Adjuvant effect in dogs (anti-Ang II antibody titer after Ang II-KLH vaccine); assay type: in vivo; details: Ang II-KLH 25 μg/animal + OSK-1 500 μg/animal intracutaneously twice at a 2-week interval
Procedure: The adjuvant effect of OSK-1 was compared with that of the conventional Freund's adjuvant in dogs. Ang II-KLH (angiotensin II-keyhole limpet hemocyanin) as a vaccine (25 μg/animal) and OSK-1 (500 μg/animal) or Freund's adjuvant (250 μL/animal) as an adjuvant were intracutaneously administered to beagles twice at a 2-week interval (2 animals per group). For the Freund's adjuvant group, complete Freund's adjuvant was used at the first administration, and incomplete Freund's adjuvant was used at the second administration. Blood was drawn before the first administration and 2 and 4 weeks after the first administration, and the anti-Ang II antibody titer was measured.
The serum separated from the blood was serially diluted in 5% skim milk/PBS, and the diluted sera were added to an Ang II-BSA-coated 96-well ELISA plate. The plate was allowed to stand at 4° C. overnight. The wells were washed with PBS-T, an HRP-labeled anti-mouse IgG antibody diluted in 5% skim milk/PBS was added to the wells. The plate was incubated with agitation at room temperature for 3 hours. The wells were washed with PBS-T, and a TMB solution was added to the wells. The plate was allowed to stand under protection from light for 30 minutes, and 0.5 N H2SO4 was added to the wells to stop the reaction. The absorbance at 450 nm was measured and used for antibody titer comparison.

[4] = system: NFκB; assay: Activation of NFκB in THP-1 cells (TNFα production with or without NFκB inhibitors); assay type: cell-based, human; details: for production of TNFα: OSK-1 100 ng/mL
Procedure: THP-1 cells were diluted to 5×10^5 cells in 500 μL of RPMI1640 medium containing 10% FBS, and the cell suspension was added to a 24-well plate at 500 μL/well. QNZ (Enzo, final concentration: 10 μM) in RPMI1640 medium containing 10% FBS, BAY11-7082 (Enzo, final concentration: 10 μM) in RPMI1640 medium containing 10% FBS and RPMI1640 medium containing 10% FBS were added to the plate, and the cells were cultured for 2.5 hours. OSK-1 was added to the wells at a final concentration of 100 ng/mL, and the cells were cultured for 2 hours. After that, the culture supernatant was harvested, and the TNFα concentration in the supernatant was measured by ELISA.

[5] = system: LPS-primed RAW 264.7 cells; assay: Cytokine production in LPS-primed RAW 264.7 cells (ELISA); assay type: cell-based, mouse; details: about 16 hours
Procedure: RAW 264.7 cells were suspended at 1×10^6 cells/mL in DMEM medium containing 50 ng/mL LPS and 10% FBS, and incubated in a CO2 incubator for 3 hours for cell priming. The cell suspension was centrifugated, the cells were resuspended at 1×10^6 cells/mL in DMEM medium containing 10% FBS, and the cell suspension was added to a 24-well plate at 500 μL/well. An OSK-1 solution was prepared at a 2-fold higher concentration than the final concentration in DMEM medium containing 10% FBS and added to the plate at 500 μL/well. After about 16 hours, the culture supernatant was harvested, and the cytokine concentrations in the supernatant were measured by ELISA.

## ELKLIFLHRLKRLRKRLKRK (Ac-ELKLIFLHRLKRLRKRLKRK-NH2) [OSK-1]
[1]; LPS-primed THP-1 cells versus non-primed THP-1 cells, 16 hours
  IL-1β production: induced the production of IL-1β only in the LPS-primed THP-1 cells
[1]; LPS-primed THP-1 cells, in the presence of caspase-1 inhibitor Z-YVAD-FMK 10 μM
  IL-1β production: also inhibited by Z-YVAD-FMK
[1]; LPS-primed THP-1 cells, in the presence of cathepsin B inhibitor Ca-074-Me 10 μM
  IL-1β production: inhibited by Ca-074-Me
[2]
  expression of CD54: strongly induced; also recorded: comparable or superior to that of muramyl dipeptide (MDP); also recorded: more highly active for inducing CD54 expression than SR-07 and SR-08
  expression of CD86: strongly induced; also recorded: comparable or superior to that of muramyl dipeptide (MDP)
[3]
  anti-Ang II antibody titer: increase in the anti-Ang II antibody titer was observed
[4]; 2 hours
  production of TNFα: induced the production of TNFα
[4]; in the presence of NFκB inhibitor BAY11-7082 10 μM
  production of TNFα: inhibited in the presence of the NFκB inhibitor QNZ or BAY11-7082
[4]; in the presence of NFκB inhibitor QNZ 10 μM
  production of TNFα: inhibited in the presence of the NFκB inhibitor QNZ
[4]; concluded from TNFα production with and without NFκB inhibitors
  activating NFκB: effective for activating NFκB
[5]
  production of the cytokines (IL-1β, IL-18, TNFα and IL-6): induced the production of the cytokines in the LPS-primed RAW 264.7 cells in an OSK-1 concentration dependent manner
